Results reported in patent publication EP2908837B1, “COMPOSITIONS FOR DRUG DELIVERY” (priority 2012, dated 2014).
Non-standard residues stand in square brackets, D forms with d. Residues, ends and D or L forms follow the SMILES beside them.

assay: In vitro plasma stability (half-life) in freshly collected mouse blood, LC-MS/MS; type: in vitro ADME; conditions: up to 8 hours at 37°C in Swiss (CD-I) mouse blood, analyte quantified in the plasma fraction
Description: In vitro plasma stability (i.e. half-life or t1/2) of the peptides of the invention was also assessed. Briefly, each peptide was incubated up to 8 hours at 37°C in freshly collected Swiss (CD-I) mouse blood and the analyte was quantified in the plasma fraction at several time-points using a liquid chromatography-tandem mass spectrometry (LC-MS/MS) analytical method. […]

**Q.** Which half-life does the source give for `CSCC[C@@H]1NC(=O)[C@H](N)CSSC(C)(C)[C@@H](C(=O)O)NC(=O)CNC(=O)[C@H](CCCNC(=N)N)NC(=O)[C@H](CC(C)C)NC(=O)[C@H](CCCNC(=N)N)NC(=O)[C@@H]2CSCN2C1=O` [SEQ ID NO: 1, (D)-Cys-Met-Thz-Arg-Leu-Arg-Gly-Pen] here?
**A.** Its half-life is 4 h.

**Q.** For `CSCC[C@@H]1NC(=O)[C@H](N)CSSC(C)(C)[C@@H](C(=O)O)NC(=O)CN(C)C(=O)[C@H](CCCNC(=N)N)NC(=O)[C@H](CC(C)C)NC(=O)[C@H](CCCNC(=N)N)NC(=O)[C@@H]2CSCN2C1=O` [SEQ ID NO: 2, (D)-Cys-Met-Thz-Arg-Leu-Arg-Sar-Pen], which half-life is on record?
**A.** Its half-life is 4.9 h.

**Q.** For `CSCC[C@@H]1NC(=O)[C@H](N)CSSC[C@@H](C(=O)O)NC(=O)CN(C)C(=O)[C@H](CCCNC(=N)N)NC(=O)[C@H](CC(C)C)NC(=O)[C@H](CCCNC(=N)N)NC(=O)[C@@H]2CCCCN2C1=O` [SEQ ID NO: 3, (D)-Cys-Met-Pip-Arg-Leu-Arg-Sar-Cys], which half-life is on record?
**A.** Its half-life is 5.9 h.

**Q.** Which half-life does the source give for `CSCC[C@@H]1NC(=O)[C@H](N)CSSC(C)(C)[C@@H](C(=O)O)NC(=O)CNC(=O)[C@H](CCCNC(=N)N)NC(=O)[C@H](CC(C)C)NC(=O)[C@H](CCCNC(=N)N)NC(=O)[C@@H]2CCCCN2C1=O` [SEQ ID NO: 4, (D)-Cys-Met-Pip-Arg-Leu-Arg-Gly-Pen] here?
**A.** Its half-life is 3.9 h.

**Q.** Which half-life does the source give for `CSCC[C@@H]1NC(=O)[C@H](N)CSSC(C)(C)[C@@H](C(=O)O)NC(=O)CN(C)C(=O)[C@H](CCCNC(=N)N)NC(=O)[C@H](CC(C)C)NC(=O)[C@H](CCCNC(=N)N)NC(=O)[C@@H]2CCCCN2C1=O` [SEQ ID NO: 5, (D)-Cys-Met-Pip-Arg-Leu-Arg-Sar-Pen] here?
**A.** Its half-life is 9.2 h.

assay: In situ brain perfusion, cerebral transfer coefficient (Kin); type: in vivo, mouse; conditions: in situ brain perfusion 2-5 min, perfusate flow rate 2 ml/min
Description: The in situ brain perfusion technique (in adult male OF1 mouse) is used to illustrate passage in the brain across the BBB.
Radioactive peptides with high specific radioactivity (RAS, up to 100 Ci/mmol) are prepared by a strategy of acylation of the N-term amine function by tritiated propionic (or propanoic) anhydride or tritiated N-propionyl-succinimide (NPS).
The techniques briefly summarized below were developed previously to study the distribution in the brain of active substances and, in particular, the role of the BBB and, more particularly, of LDLR in the penetration of these molecules in the brain. In situ brain perfusion techniques are among the most technically demanding and the most difficult to perform in the mouse. […]
This strategy of in situ brain perfusion normally carried out in the rat was adapted for mouse (Dagenais et al., 2000, J Cereb Blood Flow Metab., 20(2), 381-6) in order to broaden its application for evaluating the parameters of transport kinetics at the BBB and the blood-retinal barrier, and this also in transgenic and KO mutant mice for the receptors, enzymes or transporters of active substances. […] The duration of the fixed flow-rate perfusion is monitored. […]

**Q.** Which “Kin (transfer coefficient)” value does the source give for `CC(C)C[C@H](NC(=O)[C@H](Cc1ccccc1)NC(=O)CNC(=O)[C@@H](C)NC(=O)[C@@H](N)Cc1ccc(O)cc1)C(=O)N[C@@H](CCCNC(=N)N)C(=O)O` [Dalargine] (H-Y[dA]GFLR-OH) here?
**A.** Its value is “≈ 0.9 x 10^-4 ml/s/g”.
